HELM strings list units from the 5' end as sugar, base in round brackets, then linkage (d deoxyribose, r ribose, m 2'-O-methyl, p phosphodiester). Strings are as the collection lists them; they lack the last nucleoside at the 3' end of the tested compound. [moe] = 2'-O-(2-methoxyethyl) (MOE); [sp] = phosphorothioate linkage; [m5C] = 5-methylcytosine

23 substances from the OligoGym collection can be followed below.

In this data set the target is SMN2. Briefly: mouse, dose not given. Particulars: ASO.

Turning to “RNA1{[moe]([m5C])[sp].[moe](A)[sp].[moe]([m5C])[sp].[moe](T)[sp].[moe](T)[sp].[moe](T)[sp].[moe]([m5C])p.[moe](A)[sp].[moe](T)[sp].[moe](A)[sp].[moe](A)[sp].[moe](T)[sp].[moe](G)[sp].[moe]([m5C])[sp].[moe](T)p.[moe](G)[sp].[moe](G)}$$$$ (last 3' nucleoside missing)”, the 3 h FOB score is 0 score 0-7.

On to “RNA1{[moe](G)[sp].[moe](A)[sp].[moe](T)[sp].[moe](T)[sp].[moe]([m5C])[sp].[moe](A)[sp].[moe]([m5C])[sp].[moe](T)[sp].[moe](T)[sp].[moe](T)[sp].[moe]([m5C])[sp].[moe](A)[sp].[moe](T)[sp].[moe](A)[sp].[moe](A)[sp].[moe](T)[sp].[moe](G)[sp].[moe]([m5C])}$$$$ (last 3' nucleoside missing)”, for which the 3 h FOB score amounted to 2 score 0-7.

In turn, “RNA1{[moe]([m5C])[sp].[moe](T)p.[moe](T)p.[moe](T)p.[moe]([m5C])p.[moe](A)[sp].[moe](T)[sp].[moe](A)[sp].[moe](A)[sp].[moe](T)[sp].[moe](G)p.[moe]([m5C])p.[moe](T)p.[moe](G)[sp].[moe](G)}$$$$ (last 3' nucleoside missing)” gave a 3 h FOB score of 0 score 0-7.

As for “RNA1{[moe](A)[sp].[moe]([m5C])[sp].[moe](T)[sp].[moe](T)[sp].[moe](T)[sp].[moe]([m5C])[sp].[moe](A)[sp].[moe](T)[sp].[moe](A)[sp].[moe](A)[sp].[moe](T)[sp].[moe](G)[sp].[moe]([m5C])[sp].[moe](T)[sp].[moe](G)}$$$$ (last 3' nucleoside missing)”, the 3 h FOB score stood at 3.75 score 0-7.

“RNA1{[moe](T)[sp].[moe]([m5C])[sp].[moe](A)[sp].[moe]([m5C])[sp].[moe](T)[sp].[moe](T)[sp].[moe](T)[sp].[moe]([m5C])[sp].[moe](A)[sp].[moe](T)[sp].[moe](A)[sp].[moe](A)[sp].[moe](T)[sp].[moe](G)p.[moe]([m5C])p.[moe](T)[sp].[moe](G)}$$$$ (last 3' nucleoside missing)”: the 3 h FOB score came out at 3.5 score 0-7.

“RNA1{[moe](A)[sp].[moe]([m5C])[sp].[moe](T)p.[moe](T)p.[moe](T)p.[moe]([m5C])p.[moe](A)[sp].[moe](T)[sp].[moe](A)[sp].[moe](A)[sp].[moe](T)[sp].[moe](G)[sp].[moe]([m5C])[sp].[moe](T)[sp].[moe](G)[sp].[moe](G)}$$$$ (last 3' nucleoside missing)” had a 3 h FOB score of 0 score 0-7.

The substance “RNA1{[moe](A)[sp].[moe]([m5C])[sp].[moe](T)p.[moe](T)[sp].[moe](T)[sp].[moe]([m5C])p.[moe](A)[sp].[moe](T)[sp].[moe](A)p.[moe](A)[sp].[moe](T)[sp].[moe](G)p.[moe]([m5C])[sp].[moe](T)p.[moe](G)[sp].[moe](G)}$$$$ (last 3' nucleoside missing)” came in with a 3 h FOB score of 0 score 0-7.

Substance “RNA1{[moe](G)[sp].[moe](A)[sp].[moe](T)[sp].[moe](T)[sp].[moe]([m5C])[sp].[moe](A)[sp].[moe]([m5C])[sp].[moe](T)[sp].[moe](T)[sp].[moe](T)[sp].[moe]([m5C])[sp].[moe](A)[sp].[moe](T)[sp].[moe](A)[sp].[moe](A)[sp].[moe](T)[sp].[moe](G)[sp].[moe]([m5C])[sp].[moe](T)}$$$$ (last 3' nucleoside missing)” yielded a 3 h FOB score of 4 score 0-7.

“RNA1{[moe](T)[sp].[moe]([m5C])[sp].[moe](A)[sp].[moe]([m5C])[sp].[moe](T)[sp].[moe](T)[sp].[moe](T)[sp].[moe]([m5C])[sp].[moe](A)[sp].[moe](T)p.[moe](A)[sp].[moe](A)[sp].[moe](T)[sp].[moe](G)[sp].[moe]([m5C])[sp].[moe](T)[sp].[moe](G)}$$$$ (last 3' nucleoside missing)”: the 3 h FOB score worked out at 3 score 0-7.

Turning to “RNA1{[moe](T)[sp].[moe]([m5C])[sp].[moe](A)[sp].[moe]([m5C])[sp].[moe](T)[sp].[moe](T)[sp].[moe](T)[sp].[moe]([m5C])[sp].[moe](A)[sp].[moe](T)[sp].[moe](A)[sp].[moe](A)[sp].[moe](T)p.[moe](G)[sp].[moe]([m5C])p.[moe](T)[sp].[moe](G)}$$$$ (last 3' nucleoside missing)”, the 3 h FOB score amounted to 3 score 0-7.

Take “RNA1{[moe]([m5C])[sp].[moe](T)[sp].[moe](T)p.[moe](T)[sp].[moe]([m5C])p.[moe](A)[sp].[moe](T)p.[moe](A)[sp].[moe](A)p.[moe](T)[sp].[moe](G)p.[moe]([m5C])[sp].[moe](T)p.[moe](G)[sp].[moe](G)}$$$$ (last 3' nucleoside missing)”: the 3 h FOB score was 0.25 score 0-7.

The substance “RNA1{[moe]([m5C])[sp].[moe](A)[sp].[moe]([m5C])[sp].[moe](T)[sp].[moe](T)[sp].[moe](T)[sp].[moe]([m5C])p.[moe](A)[sp].[moe](T)[sp].[moe](A)[sp].[moe](A)[sp].[moe](T)[sp].[moe](G)[sp].[moe]([m5C])[sp].[moe](T)[sp].[moe](G)[sp].[moe](G)}$$$$ (last 3' nucleoside missing)” gave a 3 h FOB score of 0 score 0-7.

As to “RNA1{[moe]([m5C])[sp].[moe](A)p.[moe]([m5C])[sp].[moe](T)[sp].[moe](T)[sp].[moe](T)[sp].[moe]([m5C])[sp].[moe](A)[sp].[moe](T)[sp].[moe](A)[sp].[moe](A)[sp].[moe](T)p.[moe](G)[sp].[moe]([m5C])[sp].[moe](T)[sp].[moe](G)[sp].[moe](G)}$$$$ (last 3' nucleoside missing)”, the 3 h FOB score was 0 score 0-7.

The substance “RNA1{[moe]([m5C])[sp].[moe](A)[sp].[moe]([m5C])[sp].[moe](T)[sp].[moe](T)[sp].[moe](T)[sp].[moe]([m5C])[sp].[moe](A)[sp].[moe](T)[sp].[moe](A)[sp].[moe](A)[sp].[moe](T)[sp].[moe](G)p.[moe]([m5C])[sp].[moe](T)p.[moe](G)[sp].[moe](G)}$$$$ (last 3' nucleoside missing)” returned a 3 h FOB score of 0 score 0-7.

As for “RNA1{[moe](A)p.[moe](T)[sp].[moe]([m5C])[sp].[moe](A)[sp].[moe]([m5C])[sp].[moe](T)[sp].[moe](T)[sp].[moe](T)[sp].[moe]([m5C])[sp].[moe](A)[sp].[moe](T)[sp].[moe](A)[sp].[moe](A)[sp].[moe](T)[sp].[moe](G)[sp].[moe]([m5C])[sp].[moe](T)[sp].[moe](G)}$$$$ (last 3' nucleoside missing)”, the 3 h FOB score turned out to be 4 score 0-7.

On to “RNA1{[moe]([m5C])[sp].[moe](A)[sp].[moe]([m5C])[sp].[moe](T)[sp].[moe](T)[sp].[moe](T)[sp].[moe]([m5C])[sp].[moe](A)[sp].[moe](T)[sp].[moe](A)[sp].[moe](A)p.[moe](T)[sp].[moe](G)[sp].[moe]([m5C])[sp].[moe](T)[sp].[moe](G)[sp].[moe](G)}$$$$ (last 3' nucleoside missing)”, for which the 3 h FOB score is 0.25 score 0-7.

As to “RNA1{[moe]([m5C])[sp].[moe](A)[sp].[moe]([m5C])[sp].[moe](T)[sp].[moe](T)[sp].[moe](T)[sp].[moe]([m5C])[sp].[moe](A)[sp].[moe](T)p.[moe](A)[sp].[moe](A)[sp].[moe](T)[sp].[moe](G)[sp].[moe]([m5C])[sp].[moe](T)[sp].[moe](G)[sp].[moe](G)}$$$$ (last 3' nucleoside missing)”, the 3 h FOB score was determined as 0 score 0-7.

In turn, “RNA1{[moe](A)[sp].[moe]([m5C])[sp].[moe](T)[sp].[moe](T)[sp].[moe](T)[sp].[moe]([m5C])[sp].[moe](A)p.[moe](T)p.[moe](A)p.[moe](A)p.[moe](T)p.[moe](G)[sp].[moe]([m5C])[sp].[moe](T)[sp].[moe](G)[sp].[moe](G)}$$$$ (last 3' nucleoside missing)” returned a 3 h FOB score of 0 score 0-7.

Substance “RNA1{[moe]([m5C])[sp].[moe](A)p.[moe]([m5C])[sp].[moe](T)[sp].[moe](T)[sp].[moe](T)[sp].[moe]([m5C])[sp].[moe](A)[sp].[moe](T)[sp].[moe](A)[sp].[moe](A)[sp].[moe](T)[sp].[moe](G)[sp].[moe]([m5C])[sp].[moe](T)p.[moe](G)[sp].[moe](G)}$$$$ (last 3' nucleoside missing)” yielded a 3 h FOB score of 0 score 0-7.

“RNA1{[moe](A)[sp].[moe](T)p.[moe](T)[sp].[moe]([m5C])[sp].[moe](A)[sp].[moe]([m5C])[sp].[moe](T)[sp].[moe](T)[sp].[moe](T)[sp].[moe]([m5C])p.[moe](A)[sp].[moe](T)[sp].[moe](A)[sp].[moe](A)[sp].[moe](T)[sp].[moe](G)[sp].[moe]([m5C])[sp].[moe](T)[sp].[moe](G)}$$$$ (last 3' nucleoside missing)”: the 3 h FOB score was 3.25 score 0-7.

For “RNA1{[moe](T)[sp].[moe]([m5C])[sp].[moe](A)[sp].[moe]([m5C])p.[moe](T)[sp].[moe](T)[sp].[moe](T)[sp].[moe]([m5C])[sp].[moe](A)[sp].[moe](T)[sp].[moe](A)[sp].[moe](A)[sp].[moe](T)[sp].[moe](G)[sp].[moe]([m5C])[sp].[moe](T)[sp].[moe](G)}$$$$ (last 3' nucleoside missing)”, the 3 h FOB score amounted to 3.5 score 0-7.

Substance “RNA1{[moe](T)[sp].[moe]([m5C])[sp].[moe](A)[sp].[moe]([m5C])[sp].[moe](T)[sp].[moe](T)[sp].[moe](T)[sp].[moe]([m5C])[sp].[moe](A)p.[moe](T)[sp].[moe](A)[sp].[moe](A)[sp].[moe](T)[sp].[moe](G)[sp].[moe]([m5C])p.[moe](T)[sp].[moe](G)}$$$$ (last 3' nucleoside missing)” yielded a 3 h FOB score of 3.25 score 0-7.

Regarding “RNA1{[moe](A)[sp].[moe]([m5C])p.[moe](T)p.[moe](T)p.[moe](T)[sp].[moe]([m5C])[sp].[moe](A)[sp].[moe](T)[sp].[moe](A)[sp].[moe](A)[sp].[moe](T)[sp].[moe](G)[sp].[moe]([m5C])p.[moe](T)p.[moe](G)[sp].[moe](G)}$$$$ (last 3' nucleoside missing)”, the 3 h FOB score was 0 score 0-7.
